The source of these data is US6828332B1, “Piperidine derivatives as reuptake inhibitors” (Eli Lilly and Company, priority 1999, dated 2004).

Counter-ions that a name gives are not always drawn.

What is called melting point is the temperature of the solid-liquid transition.

`O=C(C1CCCCC1)C(CCN1CC=C(c2ccc3ccsc3c2)CC1)c1ccccn1` (centres unmarked) (as salt: oxalate): the melting point fell in the range of 164 to 169 °C.
The figure for `OC(C1CCCCC1)C(CCN1CC=C(c2cc3ccccc3s2)CC1)c1ccccn1` (single isomer, unassigned) (as salt: oxalate) is 210 to 212 °C.
Next, `OC(C1CCCCC1)C(CCN1CC=C(c2ccc3ccsc3c2)CC1)c1ccccn1` (centres unmarked) (as salt: oxalate): 94 to 98 °C; `O=C(C1CCCCC1)C(CCN1CC=C(c2cc3ccccc3s2)CC1)c1ccccn1` (centres unmarked) (as salt: oxalate): 228 to 230 °C; `O=C(C1CCCCC1)C(CCN1CC=C(c2ccc3sccc3c2)CC1)c1ccccn1` (centres unmarked) (as salt: oxalate): 194 to 196 °C.
Next, `OC(C1CCCCC1)C(CCN1CC=C(c2ccc3sccc3c2)CC1)c1ccccn1` (single isomer, unassigned) (as salt: oxalate): 190 to 192 °C; `OC(C1CCCCC1)C(CCN1CC=C(c2csc3ccccc23)CC1)c1ccccn1` (centres unmarked) (as salt: oxalate): 100 to 107 °C.
For `O=C(C1CCCCC1)C(CCN1CC=C(c2csc3ccccc23)CC1)c1ccccn1` (centres unmarked) (as salt: oxalate), the melting point was 208 to 210 °C.
